Reference: US4916135A, “N-heteroaryl-4-quinolinamines” (priority 1989, dated 1990)
Where a name gives a salt, the structure may show the parent alone. Read-outs that look alike come from different tables or passages of the source.

Assays:
[1] = tested on: 2-phenyl-1,4-benzoquinone-induced writhing; assay: 2-phenyl-1,4-benzoquinone-induced writhing (PQW) test in mice (analgesic activity); type: in vivo; conditions: for inhibition in vivo at 20 mg/kg: Mus musculus, sc, read-out: PQW Percent inhibition
Experimental: Compounds I of the present invention are useful as analgesic agents due to their ability to alleviate pain in mammals. […] Exptl. Biol. Med., 95, 729 (1957)].
The results of some of the compounds of this invention (expressed in terms of percent inhibition at 20 mg/kg, s.c.) are shown in Table 1 along with that of a prior art compound.

[2] = tested on: Scopolamine Induced Memory Deficit; assay: scopolamine-induced Dark Avoidance Assay; type: in vivo; conditions: s.c., mice, 24 hours
Experimental: In this assay mice are tested for their ability to remember an unpleasant stimulus for a period of 24 hours. A mouse is placed in a chamber that contains a dark compartment; a strong incandescent light drives it to the dark compartment, where an electric shock is administered through metal plates on the floor. The animal is removed from the testing apparatus and tested again, 24 hours later, for the ability to remember the electric shock.
If scopolamine, an anticholinergic that is known to cause memory impairment, is administered before an animal's initial exposure to the test chamber, the animal re-enters the dark compartment shortly after being placed in the test chamber 24 hours later. This effect of scopolamine is blocked by an active test compound, resulting in a greater interval before re-entry into the dark compartment.
The results for an active compound are expressed as the percent of a group of animals in which the effect of scopolamine is blocked, as manifested by an increased interval between being placed in the test chamber and re-entering the dark compartment.
Test results of scopolamine-induced Dark Avoidance Assay for representative compounds of this invention are presented in Table 2 along with that of a reference compound.

Compound | inhibition in vivo at 20 mg/kg ([1]; at 20 mg/kg, s.c., mice) | also measured
CCCN(c1ccnc2cc(Cl)ccc12)n1cccc1C=O [1-[(7-Chloro-4-quinolinyl)propylamino]-1H-pyrrole-2-carboxaldehyde] | 31% | 
CCCN(c1ccnc2cc(Cl)ccc12)n1ccc(C=O)c1 [1-[(7-Chloro-4-quinolinyl)propylamino]-1H-pyrrole-3-carboxaldehyde] | 42% | 
C#CCn1ccc(=Nn2cccc2)c2ccc(Cl)cc21 [7-Chloro-1-(2-propynyl)-N-(1H-pyrrol-1-yl)-4(1H)-quinolinimine] | 48% | 
CCN(CC)Cc1cccn1Nc1ccnc2cc(Cl)ccc12 [7-Chloro-N-(2-diethylaminomethyl-1H-pyrrol-1-yl)-4-quinolinamine] | 55% | 
Clc1ccc2c(Nn3cccc3CN3CCCCC3)ccnc2c1 [7-Chloro-N-[2-(1-piperidinyl)methyl-1H-pyrrol-1-yl]-4-quinolinamine] | 35% | 
CCCN(c1ccnc2cc(Cl)ccc12)n1cccc1.O=C(O)/C=C\C(=O)O [7-Chloro-N-propyl-N-(1H-pyrrol-1-yl)-4-quinolinamine maleate] | 42% | % of Animals with Scopolamine Induced Memory Deficit Reversal ([2]; 0.31 mg/kg of body weight): 20%
c1ccc2c(c1)ccn2Nc1ccnc2ccccc12 [N-(1H-Indol-1-yl)-4-quinolinamine maleate] | 32% | 
Cl.c1ccc2c(Nn3cccc3)c3c(nc2c1)CCCC3 [N-(1H-Pyrrol-1-yl)-1,2,3,4-tetrahydro-9-acridinamine hydrochloride] |  | % of Animals with Scopolamine Induced Memory Deficit Reversal ([2]; 0.63 mg/kg of body weight): 20%; inhibition in vivo at 20 mg/kg [1]: 43%
Cl.c1ccc2c(Nn3cccc3)ccnc2c1 [N-(1H-Pyrrol-1-yl)-4-quinolinamine hydrochloride] | 26% | % of Animals with Scopolamine Induced Memory Deficit Reversal ([2]; 0.16 mg/kg of body weight): 47%
Cl.FC(F)(F)c1ccc2c(Nn3cccc3)ccnc2c1 [N-(1H-Pyrrol-1-yl)-7-trifluoromethyl-4-quinolinamine hydrochloride] | 48% | % of Animals with Scopolamine Induced Memory Deficit Reversal ([2]; 1.25 mg/kg of body weight): 40%
Cc1cn(Nc2ccnc3ccccc23)c2ccccc12 [N-(3-Methyl-1H-indol-1-yl)-4-quinolinamine hydrochloride] | 44% | 
CCCN(c1c2c(nc3ccccc13)CCCC2)n1cc(C)c2ccccc21 [N-(3-Methyl-1H-indol-1-yl)-N-propyl-1,2,3,4-tetrahydro-9-acridinamine] | 42% | 
c1ccc2c(Nn3c4ccccc4c4ccccc43)ccnc2c1 [N-(4-Quinolinyl)-9H-carbazol-9-amine hydrochloride] | 30% | 
CCCN(c1ccnc2ccccc12)n1cccc1 [N-Propyl-N-(1H-pyrrol-1-yl)-4-quinolinamine] | 33% | % of Animals with Scopolamine Induced Memory Deficit Reversal ([2]; 0.16 mg/kg of body weight): 33%
CCCN(c1ccnc2ccccc12)n1c2ccccc2c2ccccc21 [N-Propyl-N-(4-quinolinyl)-9H-carbazol-9-amine] | 55% | 
CNC(=O)Oc1ccc2c(c1)[C@]1(C)CCN(C)[C@@H]1N2C [Physostigmine, reference compound] |  | % of Animals with Scopolamine Induced Memory Deficit Reversal ([2]; 0.31 mg/kg of body weight): 20%
Propoxyphene [reference compound] |  | PQW Percent inhibition ([1]; at 3.9 mg/kg, s.c., mice, reference compound): 50%
